Measurements taken from patent US6545033B1, “Fused 1-(2,6-dichloro-4-trifluoromethylphenyl)-pyrazoles, the synthesis thereof and the use thereof as pesticides” (3-Dimensional Pharmaceuticals, Inc., priority 1999, dated 2003).

Key:
Housefly GABA receptors = target: T1, Housefly GABA receptors (Musca domestica, UniProt Q75NA5); test: In vitro assay of binding to housefly GABA receptors (3H-EBOB displacement, housefly neuronal membranes); conditions: for Compounds with the most activity (housefly 3H-EBOB binding): housefly neuronal membranes
T1 sequence (Q75NA5 30-576): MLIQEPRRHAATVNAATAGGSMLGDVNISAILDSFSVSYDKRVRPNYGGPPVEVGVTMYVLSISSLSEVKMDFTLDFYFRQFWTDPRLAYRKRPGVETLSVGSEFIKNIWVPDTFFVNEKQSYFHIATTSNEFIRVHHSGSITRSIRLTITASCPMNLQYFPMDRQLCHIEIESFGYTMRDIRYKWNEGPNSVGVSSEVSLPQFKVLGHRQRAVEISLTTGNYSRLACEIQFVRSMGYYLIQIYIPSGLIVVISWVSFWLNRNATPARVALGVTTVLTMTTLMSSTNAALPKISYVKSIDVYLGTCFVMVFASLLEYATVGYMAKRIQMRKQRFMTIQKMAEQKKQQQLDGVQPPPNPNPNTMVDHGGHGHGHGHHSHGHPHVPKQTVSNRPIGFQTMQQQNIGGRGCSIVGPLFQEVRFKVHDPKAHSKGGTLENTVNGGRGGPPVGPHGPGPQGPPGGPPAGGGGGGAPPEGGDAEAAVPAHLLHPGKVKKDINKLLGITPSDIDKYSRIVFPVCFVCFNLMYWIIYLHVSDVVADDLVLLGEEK
Experimental: Newly emerged houseflies (Musca domestica, available from Rincon-Vitova Insectaries, Inc., Ventura, Calif.) were sedated with carbon dioxide gas, collected in 50 mL polypropylene conical tubes, and immediately frozen by submersion in liquid nitrogen. Unless specified, all of the following work was performed at 0-4° C. After removal from liquid nitrogen, the tubes of frozen houseflies were shaken vigorously by hand to decapitate the houseflies. […] Contaminating wings were removed by holding a vacuum nozzle approximately 4 cm above the heads, and contaminating legs were separated from the heads by passage through a #15 mesh screen. All remaining debris were removed from the pool of heads using forceps. The purified heads were collected in 50 mL polypropylene conical tubes and stored in liquid nitrogen until processed further.
About 13 g of purified housefly heads were suspended in about 65 mL of 10% sucrose buffer (10% sucrose (w/w) in 10 mM Tris, pH 7.5). The heads were homogenized for about 1 minute, using a Tissumizer™ homogenizer equipped with a SDT-100EN probe (available from Tekmar-Dohrmann, Cincinnati, Ohio) running at 70% of its maximum speed. The extract was further homogenized by about 5 passes through a 40 mL Dounce tissue grinder. The extract was then centrifuged at about 500×g for about 5 minutes to pellet large debris. The supernatant was collected; the pellet was washed with an additional 65 mL of 10% sucrose buffer and centrifuged at 500×g for about 5 minutes. The second supernatant was collected and combined with the first supernatant, and the pool was filtered through a 100μ CellMicroSieve™ mesh to remove residual debris (available from BioDesign of New York, Carmel, N.Y.).
Neuronal membranes containing active GABA receptors were collected via sucrose density centrifugation by the following method. About 8 mL of 35% sucrose buffer (35% sucrose (w/w) in 10 mM Tris, pH 7.5), were dispensed into each of six 38 mL ultracentrifuge tubes. These layers were overlaid with about 8 mL of 20% sucrose buffer (20% sucrose (w/w) in 10 mM Tris, pH 7.5), and finally overlaid with about 20 mL of filtered extract supernatant. The tubes were centrifuged at about 120,000×g for about 100 min at 4° C. After centrifugation, the 10% sucrose layer and most of the 20% sucrose layer were removed by aspiration. The membranes at the interface of the 20% sucrose and 35% sucrose layers were collected, pooled, diluted with 10% sucrose buffer, and centrifuged at about 120,000×g for about 40 min at 4° C. After centrifugation, the supernatant was discarded, and the pellets resuspended in about 6.5 mL of assay buffer (10 mM phosphate, 300 mM NaCl, pH 7.5) using a 10 mL Potter-Elvehjem tissue grinder with a Teflon® pestle. Protein concentration was determined by the Bio-Rad Protein Assay (available from Bio-Rad Laboratories, Hercules, Calif.) using bovine serum albumin as a standard. The membranes were aliquoted and stored in liquid nitrogen for up to 2 months before use.
Housefly neuronal membranes were prepared as described above from housefly heads. Test compounds were dissolved in dimethylsulfoxide (DMSO) at concentrations ranging from about 2 nM to about 100 mM. About 1 μL of a dissolved test compound was dispensed into a well of a 96-well polystyrene plate. About 100 μL of ice cold assay buffer (10 mM phosphate, 300 mM NaCl, pH 7.5) containing 5.2 nM 4′-Ethynyl-4-n-[2,3-^3H2]propylbicycloorthobenzoate (^3H-EBOB, 38 Ci/mmol, available from NEN Life Science Products, Boston, Mass.) was added to the well, followed by about 100 μL of ice cold assay buffer containing about 0.5-1.0 mg/mL housefly neuronal membranes. Control wells were prepared the same way except that the housefly neuronal membranes were omitted from the “negative” wells, and the test compounds were omitted from the “positive” wells. […]

[1] = tested on: cat fleas (Ctenocephalides felis), CO Fleas; test: In vivo cat flea contact assay, CO fleas; conditions: Ctenocephalides felis, topical; contact with treated filter disk in vial, about 24-30 hours; mM = concentration of the DMSO solution, about 1 μL applied; read-out: LD50 (mM), CO Fleas
Experimental: This example describes an in vivo assay to screen compounds for their ability to kill cat fleas via contact.
Test compounds were dissolved in dimethylsulfoxide (DMSO) at concentrations ranging from about 0.05 mM to about 100 mM. About 1 μL of dissolved test compound was dispensed onto a 6 mm (diameter) GF/C filter disk (filter material available from Whatman Inc., Clifton, N.J.) in the bottom of a 4 mL screw-top glass vial and allowed to air dry 24-48 hours. Positive control vials were prepared in the same manner except that no test compounds were dissolved in the DMSO. About 20 newly emerged cat fleas (Ctenocephalides felis) were sedated by refrigeration at 0-4° C. and transferred to each vial. Each vial was sealed with a thin, perforated Teflon™ septum secured by an open top screw cap and held vertically in the dark. After about 24-30 hours, the healthy, moribund, and dead cat fleas in each vial were counted. The percentage of dead cat fleas in each vial was then calculated using the formula M=100(D−(FC/100))/(F−(FC/100)), in which M is the percentage of dead cat fleas due to the addition of the test compound, D is the number of dead cat fleas in the test vial, F is the total number of cat fleas in the test vial, and C is the percentage of dead cat fleas in the control vials.

[2] = target: Mouse Brain GABA Receptors; test: In vitro assay of binding to mouse brain GABA receptors (3H-EBOB displacement, mouse brain membranes); conditions: displacement of 5.2 nM 3H-EBOB, about 45 min at about 24° C.
Experimental: Mouse brains were obtained from carbon dioxide-asphyxiated Swiss-Webster mice, washed with phosphate-buffered saline, and used either fresh or after storage at −80° C. for up to 10 months. Unless specified, all preparation steps were performed at 0-4° C. For each preparation, 20 brains were suspended in about 40 mL of 0.32 M sucrose and homogenized for about 2 minutes, using a Tissumizer™ homogenizer equipped with a SDT-100EN probe (available from Tekmar-Dohrmann, Cincinnati, Ohio) running at 50% of its maximum speed. The extract was centrifuged for about 5 min at about 1000×g to pellet intact brain tissue. The supernatant was retained and the pellet washed with an additional 40 mL of 0.32 M sucrose and centrifuged at 1000×g for about 5 minutes. The 1000×g supernatants were combined and centrifuged at about 10,000×g for about 20 min to pellet membranes. The 10,000×g supernatant was discarded and the pellet was resuspended in about 20 mL of water containing 1 mM EDTA. The sample was dialyzed two times for about 3 hours each against about 3 L of water. The sample was then centrifuged at about 25,000×g for about 30 min to pellet the membranes. After centrifugation, the supernatant was discarded and the wet pellet recovered. The protein concentration of the pellet was determined by the Bio-Rad Protein Assay (available from Bio-Rad Laboratories, Hercules, Calif.) using bovine serum albumin as a standard. The membranes were aliquoted and stored at −80° C. for up to 6 months before use.
Mouse brain membranes were prepared as described above from dissected mouse brains. Test compounds were dissolved in dimethylsulfoxide (DMSO) at concentrations ranging from about 2 nM to about 100 mM. About 1 μL of a dissolved test compound was dispensed into a well of a 96-well polystyrene plate. About 100 μL of ice cold assay buffer (10 mM phosphate, 300 mM NaCl, pH 7.5) containing 5.2 nM 4′-Ethynyl-4-n-[2,3-^3H2]propylbicycloorthobenzoate (^3H-EBOB, 38 Ci/mmol, available from NEN Life Science Products, Boston, Mass.) was added to the well, followed by about 100 μL of ice cold assay buffer containing about 0.25-0.5 mg/mL mouse brain membranes. Control wells were prepared the same way except that the mouse brain membranes were omitted from the “negative” wells, and the test compounds were omitted from the “positive” wells. The samples were incubated for about 45 min at about 24° C. and then filtered on a 0.1% (w/v) polyethylenimine-soaked glass fiber Filtermat A (available from EG&G Wallac Inc., Gaithersburg, Md.) followed by four 100 mL rinses of cold assay buffer using a Harvester 96® cell harvester (available from Tomtec, Orange, Conn.). The filtermat was air dried and radioactivity bound to the filtermat was detected with either a 1450 MicroBeta® Trilux scintillation counter (available from EG&G Wallac Inc.) or a Topcount NXT™ scintillation counter (available from Packard Instrument Co., Meriden, Conn.) using standard methods.
Specific binding was considered to be the difference between total ^3H bound to the mouse brain membranes in the absence of any inhibitors and nonspecific ^3H bound to the mouse brain membranes upon the addition of 5 μM unlabeled EBOB. The average radioactivity contained in the “negative” wells was subtracted from each of the assay wells. […] Compounds that displaced ^3H-EBOB specifically bound to the mouse brain membranes were tested at 24-48 different final concentrations, varying from about 1 nM to about 125 μM, in order to determine the concentration at which 50% of the maximum inhibition due to the addition of that compound was observed (IC50). […]

Row | IC50 [2] | SMILES | Compounds with the most activity (housefly 3H-EBOB binding) (Housefly GABA receptors) | LC50 [1] | IC50 (Housefly GABA receptors; displacement of 5.2 nM 3H-EBOB, housefly head neuronal membranes, about 45 min at about 24° C., read-out: IC50 (nM), Fly Head)
1 |  | CC1CCc2nn(-c3c(Cl)cc(C(F)(F)F)cc3Cl)cc21 (racemic) [Compound 42, 2-[2,6-Dichloro-4-(trifluoromethyl)phenyl]-4-methyl-2,4,5,6-tetrahydrocyclopenta[c]pyrazole] | most activity |  | 
2 |  | Nc1c2c(nn1-c1c(Cl)cc(C(F)(F)F)cc1Cl)CSC2 [Compound 1, 2-[2,6-Dichloro-4-(trifluoromethyl)phenyl]-4,6-dihydrothieno-[3,4-c]pyrazole-3-ylamine] | most activity |  | 
3 | 730 nM | O=S(=O)(Oc1c2c(nn1-c1c(Cl)cc(C(F)(F)F)cc1Cl)CSC2)c1ccccc1 [Compound 6, 2-[2,6-Dichloro-4-(trifluoromethyl)phenyl]-4,6-dihydrothieno-[3,4-c]pyrazole-3-yl benzenesulfonate] |  |  | 
4 |  | FC(F)(F)c1cc(Cl)c(-n2cc3sccc3n2)c(Cl)c1 [Compound 22, 2-[2,6-Dichloro-4-(trifluoromethyl)phenyl]-2H-thieno[3,2-c]pyrazole] | most activity |  | 
5 | 1000 nM | FC1Cc2nn(-c3c(Cl)cc(C(F)(F)F)cc3Cl)cc2C1(F)F (stereo not shown) [Compound 56, 2-[2,6-Dichloro-4-(trifluoromethyl)phenyl]-4,4,5-trifluoro-2,4,5,6-tetrahydrocyclopenta[c]pyrazole] |  | 1 mM | 
6 | 25000 nM | CC1(O)c2cn(-c3c(Cl)cc(C(F)(F)F)cc3Cl)nc2CC1F (stereo not shown) [Compound 57, 2-[2,6-Dichloro-4-(trifluoromethyl)phenyl]-5-fluoro-4-methyl-2,4,5,6-tetrahydrocyclopenta[c]pyrazol-4-ol] |  | 3.8 mM | 
7 | 1000 nM | FC(F)(F)c1cc(Cl)c(-n2cc3c(n2)CC=C3)c(Cl)c1 [Compound 63, 2-[2,6-Dichloro-4-(trifluoromethyl)phenyl]-6-hydrocyclopenta[1,2-c]pyrazole] |  |  | 
8 | 25000 nM | O=S(=O)(C1CCc2nn(-c3c(Cl)cc(C(F)(F)F)cc3Cl)cc21)C(F)(F)F (stereo not shown) [Compound 67] |  |  | 
9 | 1000 nM | CSC1CCc2nn(-c3c(Cl)cc(C(F)(F)F)cc3Cl)cc21 (stereo not shown) [Compound 68, 2-[2,6-Dichloro-4-(trifluoromethyl)phenyl]-4-methylthio-2,4,5,6-tetrahydrocyclopenta[c]pyrazole] |  |  | 

Row | SMILES | IC50 [2] | Compounds with the most activity (housefly 3H-EBOB binding) (Housefly GABA receptors) | LC50 [1] | IC50 (Housefly GABA receptors; displacement of 5.2 nM 3H-EBOB, housefly head neuronal membranes, about 45 min at about 24° C., read-out: IC50 (nM), Fly Head)
10 | F[C@@H]1Cc2cn(-c3c(Cl)cc(C(F)(F)F)cc3Cl)nc2[C@@H]1F (relative stereo) [Compound 81, cis-2-[2,6-Dichloro-4-(trifluoromethyl)phenyl]-5,6-difluoro-2,4,5,6-tetrahydrocyclopenta[c]pyrazole] | 1000 nM |  | 1.5 mM | 
11 | FC(F)(F)c1cc(Cl)c(-n2cc3c(n2)CCSC3)c(Cl)c1 [Compound 10, 2-[2,6-Dichloro-4-(trifluoromethyl)phenyl]-2H,4H,6H,7H-thiano[4,3-c]pyrazole] | 3800 nM | most activity |  | 
12 | CC1(C)CCc2cn(-c3c(Cl)cc(C(F)(F)F)cc3Cl)nc21 [Compound 12, 2-[2,6-Dichloro-4-(trifluoromethyl)phenyl]-6,6-dimethyl-2,4,5,6-tetrahydrocyclopenta[c]pyrazole] | 30000 nM | most activity |  | 
13 | CC1(O)c2cn(-c3c(Cl)cc(C(F)(F)F)cc3Cl)nc2CC1(F)F (stereo not shown) [Compound 93, 2-[2,6-Dichloro-4-(trifluoromethyl)phenyl]-5,5-difluoro-4-methyl-2,4,5,6-tetrahydrocyclopenta[c]pyrazol-4-ol] | 2300 nM |  |  | 100 nM
